We go through 16 molecules from US12240844B2 (Voronoi, Inc., priority 2019, dated 2025).

Each structure is given as a SMILES string.

For test [1], the target named is T1, human GST-DYRK1A (full length) (Homo sapiens, UniProt Q13627).
T1 construct: purified human GST-DYRK1A (full length, Thermo scientifics) enzyme; GST; purchased Thermo scientifics
In words: GST-DYRK1A enzyme inhibition, ADP-Glo kinase assay. The test is classed as biochemical. To be noted: read-out: DYRK1 IC50. Put shortly:
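ADP-Glo luminescence quantified kinase activity after a 1 h, 25° C reaction of 10 ng full-length GST-tagged human DYRK1A, substrate and 10 uM ATP in Tris-HCl buffer pH 7.4 with MgCl2, BSA and DTT. Triplicate IC50 values (nM) calculated relative to untreated solvent control.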
(In general: ADP-Glo first removes unused ATP, then detects ADP through luciferase.)

The subject of the next test is MDA-MB-231 cell line. In words: MDA-MB-231 cancer cell proliferation inhibition (Cell Titer-Glo). The conditions noted are these: Homo sapiens, MDA-MB-231 triple-negative breast cancer cell line, 72 hours. The test is classed as cell-based. Put shortly:
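GI50 comes from CellTiter-Glo luminescence, read 10 min after reagent addition at RT, following 72 h compound treatment. Eleven concentrations were used (⅓ steps, highest 10 μM final) on 2000 cells/well. MDA-MB-231 and MDA-MB-468 were grown in DMEM, SHP-77 in RPMI.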
A general note: ATP-based viability assays read luminescence as a measure of living cells.

The target of another test is T2, TTK (Homo sapiens, UniProt P33981).
T2 sequence (P33981 1-857): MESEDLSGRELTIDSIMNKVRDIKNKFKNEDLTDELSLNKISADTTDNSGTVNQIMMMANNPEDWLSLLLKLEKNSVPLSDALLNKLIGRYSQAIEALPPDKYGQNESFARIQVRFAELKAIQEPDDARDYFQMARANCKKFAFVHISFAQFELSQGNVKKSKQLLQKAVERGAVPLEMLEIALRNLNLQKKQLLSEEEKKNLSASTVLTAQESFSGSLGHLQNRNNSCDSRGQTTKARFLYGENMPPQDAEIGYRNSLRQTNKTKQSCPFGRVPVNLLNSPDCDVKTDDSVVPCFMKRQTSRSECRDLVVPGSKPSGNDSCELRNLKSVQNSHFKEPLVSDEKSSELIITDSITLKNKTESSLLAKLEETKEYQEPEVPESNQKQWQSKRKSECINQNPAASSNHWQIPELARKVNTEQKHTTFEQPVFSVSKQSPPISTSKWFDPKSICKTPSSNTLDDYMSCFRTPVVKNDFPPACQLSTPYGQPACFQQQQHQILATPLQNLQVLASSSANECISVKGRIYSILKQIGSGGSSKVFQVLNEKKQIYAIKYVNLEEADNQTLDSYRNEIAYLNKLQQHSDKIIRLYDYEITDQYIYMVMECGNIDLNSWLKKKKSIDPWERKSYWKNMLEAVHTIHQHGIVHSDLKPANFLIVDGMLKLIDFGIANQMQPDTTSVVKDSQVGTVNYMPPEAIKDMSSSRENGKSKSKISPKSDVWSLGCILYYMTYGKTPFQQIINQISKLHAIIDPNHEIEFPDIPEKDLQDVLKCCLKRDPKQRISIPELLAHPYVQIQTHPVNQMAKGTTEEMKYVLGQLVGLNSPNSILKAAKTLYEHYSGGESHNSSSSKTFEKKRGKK
Kind of test: TTK enzyme inhibition, ADP-Glo kinase assay. The conditions noted are these: ATP 5 μM. Details: purchased Signalchem T20-10G. The test is classed as biochemical. The procedure: In order to evaluate the inhibitory activity of the compounds according to the present invention on LRRK2, LRRK2 (G2019S), DYRK1, CLK1 and TTK kinases, the following experiment was performed.
Example compounds were reacted with the purified human TTK (Signalchem #T20-10G) enzyme to evaluate the enzyme inhibitory ability as follows. The reaction buffer was used as the composition of 40 mM Tris-HCl pH7.4, 20 mM MgCl2, 0.1 mg/ml BSA (5× kinase buffer, Signalchem #K03-09) and 50 μM DTT (Signalchem #D86-09B), and the reaction of all test materials was performed on the reaction buffer. The compound was diluted with 10 mM DMSO stock in […] by a serial dilution method, and the enzyme activity was measured at the final compound concentrations of 1, 0.333333, 0.111111, 0.037037, 0.012346, 0.004115, 0.001372, 0.000457, 0.000152, 0.000051 and 0.000017 μM. In the test, the human TTK (7.5 ng) enzyme was reacted with the purified ATP (5 μM, Promega #V6930) and an MBP enzyme substrate (0.2 μg, Signalchem M42-51N) at 25° C. for 4 hours, and then the enzyme activity was identified using the in vitro ADP-Glo™ kinase assay (Promega #V6930). The enzyme activity reaction liquid, an ADP-Glo reaction liquid and an enzyme potency detection solution were reacted in a ratio of 2:2:1, and the degree of inhibition of enzyme activity was measured by luminescence. The degree of inhibition of enzyme activity according to the treatment concentrations of the respective compounds was calculated based on the luminescence degree of the enzyme activity of a solvent control group that was not treated with the compound, where the concentration of each compound to inhibit enzyme activity inhibition by 50% was determined as an IC50 (nM) value and obtained using Prism (Version 8.2, GraphPad) software.
In the table below, the following designations were used for the evaluation of enzyme inhibitory ability.

As to `CCNc1cc(Nc2ccc(C(=O)N3CCC(N4CCOCC4)CC3)c3c2OCO3)nc2[nH]cc(C(F)(F)F)c12` [Example 37, (7-((4-(ethylamino)-3-(trifluoromethyl)-1H-pyrrolo[2,3-b]pyridin-6-yl)amino)benzo[d][1,3]dioxol-4-yl)(4-morpholinopiperidin-1-yl)methanone], the IC50 in test [1] was under 0.1 µM. In the test with MDA-MB-231 cell line, this molecule registered a GI50 of 0.301 to 1 µM. In the test on MDA-MB-231 cell line, `COc1cc(P2(=O)CCN(C(C)=O)CC2)ccc1Nc1cc(C2CC2)c2c(C(F)(F)F)c[nH]c2n1` [Example 48, 1-(4-(4-((4-cyclopropyl-3-(trifluoromethyl)-1H-pyrrolo[2,3-b]pyridin-6-yl)amino)-3-methoxyphenyl)-4-oxido-1,4-azaphosphinan-1-yl)ethan-1-one] had a GI50 of 0.301 to 1 µM. Besides, the IC50 at TTK fell in the range of 0.301 to 1 µM. In the test with MDA-MB-231 cell line, `O=C(c1ccc(Nc2cc(C3CC3)c3c(C(F)(F)F)c[nH]c3n2)c2c1OCO2)N1CCC(N2CCOCC2)CC1` [Example 49, (7-((4-cyclopropyl-3-(trifluoromethyl)-1H-pyrrolo[2,3-b]pyridin-6-yl)amino)benzo[d][1,3]dioxol-4-yl)(4-morpholinopiperidin-1-yl)methanone] showed a GI50 of 0.301 to 1 µM. This molecule displayed an IC50 at TTK of under 0.1 µM. Turning to `O=C(c1ccc(Nc2cc(C3CC3)c3c(C(F)(F)F)c[nH]c3n2)c2c1CCO2)N1CCOCC1` [Example 91, (7-((4-cyclopropyl-3-(trifluoromethyl)-1H-pyrrolo[2,3-b]pyridin-6-yl)amino)-2,3-dihydrobenzofuran-4-yl)(morpholino) methanone], the GI50 with MDA-MB-231 cell line lay in the range of 0.301 to 1 µM. For the same molecule, the IC50 against TTK was 0.301 to 1 µM. Regarding `O=C(c1ccc(Nc2cc(C3CC3)c3c(C(F)(F)F)c[nH]c3n2)c2c1CCO2)N1CCC(N2CCOCC2)CC1` [Example 93, (7-((4-cyclopropyl-3-(trifluoromethyl)-1H-pyrrolo[2,3-b]pyridin-6-yl)amino)-2,3-dihydrobenzofuran-4-yl)(4-morpholinopiperidin-1-yl)mthanone], in the test with MDA-MB-231 cell line, the 50% growth inhibitory concentration (GI50) was in the range of 0.301 to 1 µM. Also, the IC50 against TTK is 0.301 to 1 µM. For the molecule `CCNc1cc(Nc2ccc(P3(=O)CCN(C4CCOCC4)CC3)cc2OC)nc2[nH]cc(C(F)(F)F)c12` [Example 94, 4-(4-((4-(ethylamino)-3-(trifluoromethyl)-1H-pyrrolo[2,3-b]pyridin-6-yl)amino)-3-methoxyphenyl)-1-(tetrahydro-2H-pyran-4-yl)-1,4-azaphosphinane 4-oxide], the IC50 in test [1] lay within 0.101 to 0.3 µM. Moreover, in the test with MDA-MB-231 cell line, the GI50 was 0.301 to 1 µM. Take `CCNc1cc(Nc2ccc(S(=O)(=O)N3CCC(N4CCOCC4)CC3)c3c2OCCO3)nc2[nH]cc(C(F)(F)F)c12` [Example 96, N^4-ethyl-N^6-(8-((4-morpholonopiperidin-1-yl)sulfonyl)-2,3-dihydrobenzo [b] [1,4]dioxin-5-yl)-3-(trifluoromethyl)-1H-pyrrolo[2,3-b]pyridine-4,6-diamine]: the IC50 in test [1] lay in the range of 0.301 to 1 µM. The molecule further yielded a GI50 with MDA-MB-231 cell line of 0.301 to 1 µM. Regarding `CNc1cc(Nc2ccc(C(=O)N3CCC(N4CCOCC4)CC3)c3c2OCCO3)nc2[nH]cc(C(F)(F)F)c12` [Example 160, (8-((4-(methylamino)-3-(trifluoromethyl)-1H-pyrrolo[2,3-b]pyridin-6-yl)amino)-2,3-dihydrobenzo [b] [1,4]dioxin-5-yl)(4-morpholinopiperidin-1-yl)methanone], the IC50 in test [1] lay within 0.101 to 0.3 µM. `CCCNc1cc(Nc2ccc(C(=O)N3CCC(N4CCOCC4)CC3)c3c2OCCO3)nc2[nH]cc(C(F)(F)F)c12` [Example 162, (4-morpholinopiperidin-1-yl)(8-((4-(propylamino)-3-(trifluoromethyl)-1H-pyrrolo[2,3-b]pyridin-6-yl)amino)-2,3-dihydrobenzo[b] [1,4]dioxin-5-yl)methanone]: the IC50 in test [1] is 0.101 to 0.3 µM. On to `CNc1cc(Nc2ccc(S(=O)(=O)N3CCC(N4CCOCC4)CC3)cc2OC)nc2[nH]cc(C(F)(F)F)c12` [Example 184, N^6-(2-methoxy-4-((4-morpholinopiperidin-1-yl)sulfonyl)phenyl)-N^4-methyl-3-(trifluoromethyl)-1H-pyrrolo[2,3-b]pyridine-4,6-diamine], for which the GI50 in the test with MDA-MB-231 cell line lay within 0.301 to 1 µM. The molecule further returned an IC50 against TTK of under 0.1 µM. `COc1cc(S(=O)(=O)N2CCC(N3CCOCC3)CC2)ccc1Nc1cc(NCCS(C)(=O)=O)c2c(C(F)(F)F)c[nH]c2n1` [Example 194, N^6-(2-methoxy-4-((4-morpholinopiperidin-1-yl)sulfonyl)phenyl)-N^4-(2-(methylsulfonyl)ethyl)-3-(trifluoromethyl)-1H-pyrrolo[2,3-b]pyridine-4,6-diamine]: the IC50 in test [1] is under 0.1 µM. Also, in the test with MDA-MB-231 cell line, the GI50 fell in the range of 0.301 to 1 µM. Take `CCNc1cc(Nc2ccc(P3(=O)CCN(C4CC4)CC3)cc2OC)nc2[nH]cc(C(F)(F)F)c12` [Example 206, 1-cyclopropyl-4-(4-((4-(ethylamino)-3-(trifluoromethyl)-1H-pyrrolo[2,3-b]pyridin-6-yl)amino)-3-methoxyphenyl)-1,4-azaphosphinane 4-oxide]: the 50% inhibitory concentration (IC50) in test [1] was 0.301 to 1 µM.

In turn, `O=C(c1ccc(Nc2cc(C3CC3)c3c(C(F)(F)F)c[nH]c3n2)c2c1OCCO2)N1CCC(N2CCOCC2)CC1` [Example 221, (8-((4-cyclopropyl-3-(trifluoromethyl)-1H-pyrrolo[2,3-b]pyridin-6-yl)amino)-2,3-dihydrobenzo [b] [1,4]dioxin-5-yl)(4-morpholinopiperidin-1-yl)methanone] came in with a GI50 in the test with MDA-MB-231 cell line of 0.301 to 1 µM. The concentration for half-maximal inhibition (IC50) against TTK is under 0.1 µM.

In the case of `COc1cc(S(=O)(=O)N2CCOCC2)ccc1Nc1cc(C2CC2)c2c(C(F)(F)F)c[nH]c2n1` [Example 222, 4-cyclopropyl-N-(2-methoxy-4-(morpholinosulfonyl)phenyl)-3-(trifluoromethyl)-1H-pyrrolo[2,3-b]pyridin-6-amine], the concentration for 50% growth inhibition (GI50) with MDA-MB-231 cell line lay within 0.301 to 1 µM. The molecule further came in with an IC50 against TTK of under 0.1 µM. Regarding `N#Cc1c[nH]c2nc(Nc3ccc(C(=O)N4CCOCC4)c4c3OCCO4)cc(C3CC3)c12` [Example 225, 4-cyclopropyl-6-((8-(morpholine-4-carbonyl)-2,3-dihydrobenzo[b] [1,4]dioxin-5-yl)amino)-1H-pyrrolo[2,3-b]pyridine-3-carbonitrile], the GI50 with MDA-MB-231 cell line was 0.301 to 1 µM. On TTK, this molecule had an IC50 of under 0.1 µM. Turning to `CNc1cc(Nc2ccc(S(=O)(=O)N3CCC(N4C[C@H]5C[C@@H]4CO5)CC3)cc2OC)nc2[nH]cc(C(F)(F)F)c12` [Example 243, N^6-(4-((4-((1R,4R)-2-oxa-5-azabicyclo[2.2.1]heptan-5-yl)piperidin-1-yl)sulfonyl)-2-methoxyphenyl)-N^4-methyl-3-(trifluoromethyl)-1H-pyrrolo[2,3-b]pyridine-4,6-diamine], the IC50 in test [1] is under 0.1 µM. The same molecule gave a GI50 in the test with MDA-MB-231 cell line of 0.101 to 0.3 µM.

Broadly, the IC50 is the concentration that gives 50% inhibition. By GI50 is commonly meant the concentration giving 50% growth inhibition. Read a high GI50 as less potent growth inhibition.
